# Measurements: patent publication US5356916A, “1,2,4-oxadiazole derivatives having monoamine oxidase B enzyme-inhibitory activity” (Wakamoto Pharmaceutical Co., Ltd., priority 1991, dated 1994)
# Experiments:
# Parkinson's disease = details: United States and Europe; cited from earlier work
# MAO-A = biological target: T1, MAO-A (Rattus norvegicus, UniProt P21396); test: In vitro inhibition of monoamine oxidase A (oxygen electrode, rat liver mitochondria, substrate serotonin); type: biochemical; details: rat liver mitochondria, 37° C., preincubated, substrate serotonin (5-HT); read-out: IC50 MAO-A
# T1 construct: mitochondria prepared from the liver of rats; from tissue; host or cells: rat liver mitochondria
# T1 sequence (P21396 1-526): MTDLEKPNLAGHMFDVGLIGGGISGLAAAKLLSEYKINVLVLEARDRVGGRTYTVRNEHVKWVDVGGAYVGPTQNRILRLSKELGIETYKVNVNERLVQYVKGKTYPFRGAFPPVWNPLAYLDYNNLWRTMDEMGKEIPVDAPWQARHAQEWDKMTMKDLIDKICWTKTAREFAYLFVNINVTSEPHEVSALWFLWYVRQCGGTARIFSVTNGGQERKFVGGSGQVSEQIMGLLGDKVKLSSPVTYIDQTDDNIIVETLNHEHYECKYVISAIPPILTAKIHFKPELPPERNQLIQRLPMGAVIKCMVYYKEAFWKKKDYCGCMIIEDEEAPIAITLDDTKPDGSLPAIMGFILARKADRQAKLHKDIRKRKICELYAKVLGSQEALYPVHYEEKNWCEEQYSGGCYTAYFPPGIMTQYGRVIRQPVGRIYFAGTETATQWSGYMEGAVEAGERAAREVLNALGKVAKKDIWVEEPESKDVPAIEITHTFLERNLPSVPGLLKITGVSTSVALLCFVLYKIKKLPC
# Procedure: (§1) The MAO-inhibitory activity of the compounds of the present invention was determined according to an MAO-inhibitory activity determining method using the oxygen electrode disclosed in K. F. Tipton et al., Biochem. J., 1968,108, pp. 95-99.
# (§2) A potassium phosphate buffer solution of mitochondria prepared from the liver of rats was preincubated at 37° C. with or without a compound of the present invention and then a substrate was added to the mixture to thus initiate the reaction at that temperature while the dissolved oxygen-consuming reaction due to MAO activity in the reaction solution was monitored by the oxygen electrode. In this respect, the substrates used were serotonin (5-HT) for the MAO-A activity determination and benzylamine (BA) for the MAO-B activity determination. The MAO-inhibitory activity was evaluated in terms of an IC5.sbsb.0 value which is the concentration of a compound tested required for reducing the rate of oxygen-consuming reaction performed in the presence of the compound to 50% of that of the reaction performed in the absence of the compound.
# MAO-B = biological target: T2, MAO-B (Rattus norvegicus, UniProt P19643); test: In vitro inhibition of monoamine oxidase B (oxygen electrode, rat liver mitochondria, substrate benzylamine); type: biochemical; details: for IC50: rat liver mitochondria, 37° C., preincubated, substrate benzylamine (BA), read-out: IC50 MAO-B; for MAO-A/MAO-B: ratio of IC50 values MAO-A/MAO-B
# T2 construct: mitochondria prepared from the liver of rats; from tissue; host or cells: rat liver mitochondria
# T2 sequence (P19643 1-520): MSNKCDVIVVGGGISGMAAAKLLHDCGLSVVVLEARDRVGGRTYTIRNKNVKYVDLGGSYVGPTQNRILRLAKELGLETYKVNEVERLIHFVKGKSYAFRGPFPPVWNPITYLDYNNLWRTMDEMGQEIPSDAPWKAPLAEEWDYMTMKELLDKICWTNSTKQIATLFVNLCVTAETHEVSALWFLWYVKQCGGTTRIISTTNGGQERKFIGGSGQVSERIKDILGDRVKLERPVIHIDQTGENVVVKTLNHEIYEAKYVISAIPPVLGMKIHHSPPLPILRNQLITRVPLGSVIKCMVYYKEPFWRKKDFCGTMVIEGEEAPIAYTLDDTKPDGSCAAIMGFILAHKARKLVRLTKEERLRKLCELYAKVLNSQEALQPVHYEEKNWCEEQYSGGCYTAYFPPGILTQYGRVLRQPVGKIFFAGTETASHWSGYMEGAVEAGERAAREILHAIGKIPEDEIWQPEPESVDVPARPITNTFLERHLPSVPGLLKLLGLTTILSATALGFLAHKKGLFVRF
# Procedure: as §1, §2
SMILES,clinical effectiveness in Parkinson's disease (in words) (Parkinson's disease),IC50 (MAO-A) [µM],IC50 (MAO-B) [µM],MAO-A/MAO-B (MAO-B)
"C#CCN(C)C(C)Cc1ccccc1 (racemic) [d,l-Deprenil]",effectiveness of this compound has clinically been proved,–,–,–
"CNc1nc(-c2ccc(OCCCn3ccnc3)cc2)no1 [Example 32, 3-[4-[3-(1H-imidazol-1-yl)propoxy]phenyl]-5-methyl-amino-1,2,4-oxadiazole]",–,110,1.2,92
"CNc1nc(-c2ccc(OCc3ccccc3)cc2)no1 [Example 33, 3-(4-benzyloxyphenyl)-5-methylamino-1,2,4-oxadiazole]",–,100,7,14
